# Reference: US4264590A, “Antibacterial peptide” (Abbott Laboratories, priority 1980, dated 1981)
# “And” between values parts separate entries of the source, which are not always exact repeats. Identical values can stand only once.
# What was measured:
# E. coli (Juhl) [1] = assay: serial dilution in synthetic medium in test tubes, MIC and F.I.C. index (Table II); assay type: cell-based; conditions: for MIC: Escherichia coli
# Method: The halogenated peptides alone, the antibiotic alone or mixtures of the halogenated peptides and selected antibiotics are prepared in sterile concentrated aqueous solutions at the desired ratios. Serial dilutions are made to give a range of concentrations of the test substances. Samples of the dilutions are mixed with an appropriate sterile synthetic medium in test tubes. The tubes are then inoculated with an appropriate test organism and incubated at 35°-37° C. for 16-20 hours. Minimum inhibitory concentrations, i.e., that concentration which inhibits visible growth, are read and the fractional inhibitory concentration indices (F.I.C.) are calculated. In all instances, E. coli (Juhl) was used as the infecting microorganism.
# S. aureus (Smith) = assay: mouse protection test, CD50 (Table III); assay type: in vivo; conditions: for F.I.C. Index / CD50 (mg/kg) Combination: S. aureus (Smith) in mice, dipeptide:D-cycloserine 10:1; for CD50 (mg/kg) Combination: amount of peptide only listed, D-cycloserine is 10% of it; for CD50 (mg/kg) Peptide: mice infected i.p. with S. aureus (Smith), dosed subcutaneously, 7 days survival, peptide alone
# Method: (§1) Charles River mice, weighing approximately 20 g. each, are infected intraperitoneally with 10-100 times the LD of the infecting organism. At predetermined intervals post-infection, e.g., 1 and 5 hours, mice are dosed subcutaneously with graded doses of the halogenated peptide, antibiotic and combination thereof. The number of mice surviving each treatment for 7 days post-infection is observed and the CD50 is calculated. The fractional inhibitory concentration (F.I.C.) for each combination is calculated in the usual manner.
# (§2) In this table, the following infecting microorganisms were used:
# (§3) The infecting organisms are listed by the above code; the compounds are listed by their Example number. In all instances, the dipeptide and D-cycloserine were tested at a ratio of 10:1. The CD50 combination column lists only the amount of peptide present; the D-cycloserine amount is 10% of the listed amount.
# E. coli (305-101) = assay: mouse protection test, CD50 (Table III); assay type: in vivo
# Method: as §1, §2, §3
# E. coli (Juhl) [2] = assay: two-fold agar dilution assay, M.I.C.; assay type: cell-based; conditions: for MIC: Escherichia coli, substance alone, agar dilution, read-out: minimum inhibitory concentration (M.I.C.)
# Text: (§4) In a two-fold agar dilution assay with E. coli (Juhl) and E. coli 6880 as test organisms, compounds of Examples 1 and 2 show a minimum inhibitory concentration (M.I.C.) of >800 ppm. […] The combination of the new peptide with D-cycloserine produces the following M.I.C. test results.
# E. coli 6880 = assay: two-fold agar dilution assay, M.I.C.; assay type: cell-based; conditions: for MIC: Escherichia coli, substance alone, agar dilution, read-out: minimum inhibitory concentration (M.I.C.)
# Text: as §4
# Strep. pyrogenes (C 203) = assay: mouse protection test, CD50 (Table III); assay type: in vivo
# Method: as §1, §2
# Strep. pyrogenes (C 203).
# as §3
# E. coli (Juhl) [3] = assay: mouse protection test, CD50 (Table III); assay type: in vivo
# Method: as §1, §2, §3
# [4] = combination with D-cycloserine, ratio Pep/Antib. 1:1
# [5] = combination with D-cycloserine, ratio Pep/Antib. 1:8
# [6] = combination with D-cycloserine, ratio Pep/Antib. 8:1
# [7] = peptide alone, E. coli (Juhl), 35-37° C., 16-20 hours
# [8] = combination with carbencillin, ratio Pep/Antib. 1:1
# [9] = combination with carbencillin, ratio Pep/Antib. 1:8
# [10] = peptide:D-cycloserine ratio 1:1
# [11] = peptide:D-cycloserine ratio 1:8
# [12] = peptide:D-cycloserine ratio 8:1
structure (smiles),measurement,setting,value
"N[C@@H](CO)C(=O)N[C@H](CF)C(=O)O [Example 8, L-Ser-βF-D-Ala]",F.I.C. Index,E. coli (Juhl) [1]; [4],0.008
same,"MIC ppm Pep/Antib., antibiotic part",E. coli (Juhl) [1]; [4],0.1 ppm
same,"MIC ppm Pep/Antib., peptide part",E. coli (Juhl) [1]; [4],0.1 ppm
same,F.I.C. Index,E. coli (Juhl) [1]; [5],0.03
same,"MIC ppm Pep/Antib., antibiotic part",E. coli (Juhl) [1]; [5],0.39 ppm
same,"MIC ppm Pep/Antib., peptide part",E. coli (Juhl) [1]; [5],0.05 ppm
same,F.I.C. Index,E. coli (Juhl) [1]; [6],0.004
same,"MIC ppm Pep/Antib., antibiotic part",E. coli (Juhl) [1]; [6],0.05 ppm
same,"MIC ppm Pep/Antib., peptide part",E. coli (Juhl) [1]; [6],0.39 ppm
same,MIC ppm Peptide,E. coli (Juhl) [1]; [7],> 800 ppm
same,F.I.C. Index,S. aureus (Smith),0.13
same,CD50 (mg/kg) Combination,S. aureus (Smith),5.2 mg/kg
same,CD50 (mg/kg) Peptide,S. aureus (Smith),48 mg/kg
"CC1(C)S[C@@H]2[C@H](NC(=O)C(C(=O)O)c3ccccc3)C(=O)N2[C@H]1C(=O)O (stereo partly drawn) [carbencillin, reference compound]",MIC ppm Antibiotic,"E. coli (Juhl) [1]; antibiotic alone, E. coli (Juhl), 35-37° C., 16-20 hours",6.2 ppm
"NCCCC[C@H](N)C(=O)N[C@H](CF)C(=O)O [Example 6, L-Lys-βF-D-Ala]",F.I.C. Index,S. aureus (Smith),0.08 and 0.13
same,CD50 (mg/kg) Combination,S. aureus (Smith),6.8 mg/kg and 4.0 mg/kg
"N[C@@H]1CON=C1O [D-cycloserine, reference compound]",CD50 (mg/kg) Cycloserine,"E. coli (305-101); mice infected i.p. with E. coli (305-101), dosed subcutaneously, 7 days survival, D-cycloserine alone",63 mg/kg
same,MIC,E. coli (Juhl) [2],12.5 µg/mL
same,MIC,E. coli 6880,6.2 µg/mL
same,CD50 (mg/kg) Cycloserine,"Strep. pyrogenes (C 203); mice infected i.p. with Strep. pyrogenes (C 203), dosed subcutaneously, 7 days survival, D-cycloserine alone",> 100 mg/kg
"CC(C)C[C@H](N)C(=O)N[C@H](CF)C(=O)O [Example 4, L-Leu-βF-D-Ala]",F.I.C. Index,E. coli (Juhl) [1]; [4],0.008
same,"MIC ppm Pep/Antib., antibiotic part",E. coli (Juhl) [1]; [4],0.1 ppm
same,"MIC ppm Pep/Antib., peptide part",E. coli (Juhl) [1]; [4],0.1 ppm
same,F.I.C. Index,E. coli (Juhl) [1]; [5],0.06
same,"MIC ppm Pep/Antib., antibiotic part",E. coli (Juhl) [1]; [5],0.78 ppm
same,"MIC ppm Pep/Antib., peptide part",E. coli (Juhl) [1]; [5],0.1 ppm
same,F.I.C. Index,E. coli (Juhl) [1]; [8],0.25
same,"MIC ppm Pep/Antib., antibiotic part",E. coli (Juhl) [1]; [8],1.56 ppm
same,"MIC ppm Pep/Antib., peptide part",E. coli (Juhl) [1]; [8],1.56 ppm
same,F.I.C. Index,E. coli (Juhl) [1]; [9],2.0
same,"MIC ppm Pep/Antib., antibiotic part",E. coli (Juhl) [1]; [9],12.5 ppm
same,"MIC ppm Pep/Antib., peptide part",E. coli (Juhl) [1]; [9],1.56 ppm
same,MIC ppm Peptide,E. coli (Juhl) [1]; [7],> 200 ppm and > 100 ppm
same,F.I.C. Index,S. aureus (Smith),0.25
same,CD50 (mg/kg) Combination,S. aureus (Smith),1.6 mg/kg
same,CD50 (mg/kg) Peptide,S. aureus (Smith),7.4 mg/kg
same,F.I.C. Index,"E. coli (Juhl) [3]; E. coli (Juhl) in mice, dipeptide:D-cycloserine 10:1",0.41
same,CD50 (mg/kg) Combination,"E. coli (Juhl) [3]; E. coli (Juhl) in mice, dipeptide:D-cycloserine 10:1, amount of peptide only listed, D-cycloserine is 10% of it",10.1 mg/kg
same,CD50 (mg/kg) Peptide,"E. coli (Juhl) [3]; mice infected i.p. with E. coli (Juhl), dosed subcutaneously, 7 days survival, peptide alone",25.9 mg/kg
"O=C(N[C@H](CF)C(=O)O)[C@@H]1CCCN1 [Example 7, L-Pro-βF-D-Ala]",F.I.C. Index,S. aureus (Smith),0.35
same,CD50 (mg/kg) Combination,S. aureus (Smith),3.7 mg/kg
same,CD50 (mg/kg) Peptide,S. aureus (Smith),12.2 mg/kg
"Br.C[C@H](N)C(=O)N[C@H](CF)C(=O)O [Example 1, L-alanyl-β-fluoro-D-alanine hydrobromide]",MIC,"E. coli (Juhl) [1]; combination with D-cycloserine, ratio Pep/Antib. 1:1, read-out: MIC ppm Pep/Antib., peptide part",0.2 µg/mL
same,MIC,"E. coli (Juhl) [1]; combination with D-cycloserine, ratio Pep/Antib. 1:8, read-out: MIC ppm Pep/Antib., peptide part",0.2 µg/mL
same,MIC,"E. coli (Juhl) [1]; combination with D-cycloserine, ratio Pep/Antib. 8:1, read-out: MIC ppm Pep/Antib., peptide part",0.39 µg/mL
same,MIC,"E. coli (Juhl) [1]; peptide alone, E. coli (Juhl), 35-37° C., 16-20 hours, read-out: MIC ppm Peptide",> 800 µg/mL
same,F.I.C. Index,E. coli (Juhl) [1]; [4],0.02
same,"MIC ppm Pep/Antib., antibiotic part",E. coli (Juhl) [1]; [4],0.2 ppm
same,F.I.C. Index,E. coli (Juhl) [1]; [5],0.12
same,"MIC ppm Pep/Antib., antibiotic part",E. coli (Juhl) [1]; [5],1.56 ppm
same,F.I.C. Index,E. coli (Juhl) [1]; [6],0.004
same,"MIC ppm Pep/Antib., antibiotic part",E. coli (Juhl) [1]; [6],0.05 ppm
same,F.I.C. Index,"E. coli (305-101); E. coli (305-101) in mice, dipeptide:D-cycloserine 10:1",0.90
same,CD50 (mg/kg) Combination,"E. coli (305-101); E. coli (305-101) in mice, dipeptide:D-cycloserine 10:1, amount of peptide only listed, D-cycloserine is 10% of it",25 mg/kg
same,CD50 (mg/kg) Peptide,"E. coli (305-101); mice infected i.p. with E. coli (305-101), dosed subcutaneously, 7 days survival, peptide alone",26 mg/kg
same,F.I.C. Index,S. aureus (Smith),< 0.37
same,CD50 (mg/kg) Combination,S. aureus (Smith),< 3.1 mg/kg
same,CD50 (mg/kg) Peptide,S. aureus (Smith),9.2 mg/kg
same,MIC,E. coli (Juhl) [2],> 800 µg/mL
same,"M.I.C. of combination, D-cycloserine part",E. coli (Juhl) [2]; [10],0.2 ppm
same,"M.I.C. of combination, peptide part",E. coli (Juhl) [2]; [10],0.2 ppm
same,"M.I.C. of combination, D-cycloserine part",E. coli (Juhl) [2]; [11],1.56 ppm
same,"M.I.C. of combination, peptide part",E. coli (Juhl) [2]; [11],0.2 ppm
same,"M.I.C. of combination, D-cycloserine part",E. coli (Juhl) [2]; [12],0.05 ppm
same,"M.I.C. of combination, peptide part",E. coli (Juhl) [2]; [12],0.39 ppm
same,MIC,E. coli 6880,> 800 µg/mL
same,"M.I.C. of combination, D-cycloserine part",E. coli 6880; [10],0.1 ppm
same,"M.I.C. of combination, peptide part",E. coli 6880; [10],0.1 ppm
same,"M.I.C. of combination, D-cycloserine part",E. coli 6880; [11],0.78 ppm
same,"M.I.C. of combination, peptide part",E. coli 6880; [11],0.1 ppm
same,"M.I.C. of combination, D-cycloserine part",E. coli 6880; [12],0.05 ppm
same,"M.I.C. of combination, peptide part",E. coli 6880; [12],0.39 ppm
same,F.I.C. Index,"Strep. pyrogenes (C 203); Strep. pyrogenes (C 203) in mice, dipeptide:D-cycloserine 10:1",0.60
same,CD50 (mg/kg) Combination,"Strep. pyrogenes (C 203); Strep. pyrogenes (C 203) in mice, dipeptide:D-cycloserine 10:1, amount of peptide only listed, D-cycloserine is 10% of it",10.9 mg/kg
same,CD50 (mg/kg) Peptide,"Strep. pyrogenes (C 203); mice infected i.p. with Strep. pyrogenes (C 203), dosed subcutaneously, 7 days survival, peptide alone",17.8 mg/kg
"CC(C)[C@H](N)C(=O)N[C@H](CF)C(=O)O [Example 3, L-Val-βF-D-Ala]",F.I.C. Index,S. aureus (Smith),0.15
same,CD50 (mg/kg) Combination,S. aureus (Smith),1.0 mg/kg
same,CD50 (mg/kg) Peptide,S. aureus (Smith),10 mg/kg
"CNCC(=O)N[C@H](CF)C(=O)O [Example 11, Sar-βF-D-Ala]",F.I.C. Index,S. aureus (Smith),0.24
same,CD50 (mg/kg) Combination,S. aureus (Smith),6.2 mg/kg
same,CD50 (mg/kg) Peptide,S. aureus (Smith),29 mg/kg
